From US11613538B2, “Method of inhibiting or reducing a viral infection” (PTC Therapeutics, Inc., priority 2009, dated 2023)

test system: hypoxia-induced VEGF production in HeLa cells; experiment: cells; type: cell-based, human; settings: Homo sapiens, HeLa

Row | Compound | EC50
1 | N#CCOc1ccc(C2NCCc3c2[nH]c2ccc(Cl)cc32)cc1 (stereo not drawn) [Compound 1550] | 200 to 1000 nM
2 | CS(=O)(=O)CCCOc1ccc(C2c3[nH]c4ccc(Cl)cc4c3CCN2C(=O)Oc2ccc(Cl)cc2)cc1 (stereo not drawn) [Compound 1551] | < 8 nM
3 | CN1CCC(OCCCOc2ccc(C3c4[nH]c5ccc(Cl)cc5c4CCN3C(=O)Oc3ccc(Cl)cc3)cc2)CC1 (stereo not drawn) [Compound 1554] | > 1000 nM
4 | O=C(Oc1ccc(Cl)cc1)N1CCc2c([nH]c3ccc(Cl)cc23)C1c1ccc(OCCCOCCN2CCOCC2)cc1 (stereo not drawn) [Compound 1555] | < 8 nM
5 | C[Si](C)(C)CCS(=O)(=O)N1CCC(Oc2ccc(C3NCCc4c3[nH]c3ccc(Cl)cc43)cc2)CC1 (stereo not drawn) [Compound 1556] | 40 to 200 nM
6 | CCOC(=O)N1CCc2c([nH]c3ccc(Cl)cc23)[C@@H]1c1ccc(Oc2ncccn2)cc1 [Compound 1573] | < 8 nM
7 | CCOC(=O)N1CCc2c([nH]c3ccc(Cl)cc23)[C@@H]1c1ccc(Oc2cnccn2)cc1 [Compound 1574] | < 8 nM
8 | CCOC(=O)N1CCc2c([nH]c3ccc(Cl)cc23)[C@@H]1c1ccc(Oc2ccc3ccccc3n2)cc1 [Compound 1575] | < 8 nM
9 | CC#CCOC(=O)N1CCc2c([nH]c3ccc(Cl)cc23)C1c1ccc(OC2CCOCC2)cc1 (stereo not drawn) [Compound 1576] | < 8 nM
10 | CC#CCOC(=O)N1CCc2c([nH]c3ccc(Cl)cc23)C1c1ccc(OC2CCN(S(=O)(=O)CC[Si](C)(C)C)CC2)cc1 (stereo not drawn) [Compound 1579] | < 8 nM
11 | C[Si](C)(C)CCS(=O)(=O)N1CCC(Oc2ccc(C3c4[nH]c5ccc(Cl)cc5c4CCN3C(=O)Oc3ccc(F)cc3)cc2)CC1 (stereo not drawn) [Compound 1580] | < 8 nM
12 | C[Si](C)(C)CCS(=O)(=O)N1CCC(Oc2ccc(C3c4[nH]c5ccc(Cl)cc5c4CCN3C(=O)Oc3ccc(Cl)cc3)cc2)CC1 (stereo not drawn) [Compound 1581] | < 8 nM
13 | Clc1ccc2[nH]c3c(c2c1)CCN(c1ncccn1)C3c1ccc(OC2CCOCC2)cc1 (stereo not drawn) [Compound 1582] | < 8 nM
14 | C[Si](C)(C)CCS(=O)(=O)N1CCC(Oc2ccc(C3c4[nH]c5ccc(Cl)cc5c4CCN3c3ncccn3)cc2)CC1 (stereo not drawn) [Compound 1583] | < 8 nM
15 | COc1ccc(C2c3[nH]c4ccc(Cl)cc4c3CCN2c2nc(C)cs2)cc1 (stereo not drawn) [Compound 1584] | < 8 nM
16 | CCOC(=O)c1csc(N2CCc3c([nH]c4ccc(Cl)cc34)C2c2ccc(OC)cc2)n1 (stereo not drawn) [Compound 1585] | < 8 nM
17 | COc1ccc(C2c3[nH]c4ccc(Cl)cc4c3CCN2c2nc(O)cs2)cc1 (stereo not drawn) [Compound 1586] | 40 to 200 nM
18 | COc1ccc(C2c3[nH]c4ccc(Cl)cc4c3CCN2c2nc(C(C)(C)C)cs2)cc1 (stereo not drawn) [Compound 1587] | < 8 nM
19 | COc1ccc(C2c3[nH]c4ccc(Cl)cc4c3CCN2c2nc(C)c(C(=O)N(C)C)s2)cc1 (stereo not drawn) [Compound 1588] | 40 to 200 nM
20 | COc1ccc(C2c3[nH]c4ccc(Cl)cc4c3CCN2c2nc(C(F)(F)F)cs2)cc1 (stereo not drawn) [Compound 1589] | < 8 nM
21 | COc1ccc(C2c3[nH]c4ccc(Cl)cc4c3CCN2c2nc(-c3ccccn3)cs2)cc1 (stereo not drawn) [Compound 1590] | 8 to 40 nM
22 | COc1ccc(-c2csc(N3CCc4c([nH]c5ccc(Cl)cc45)C3c3ccc(OC)cc3)n2)cc1 (stereo not drawn) [Compound 1591] | < 8 nM
23 | COc1ccc(C2c3[nH]c4ccc(Cl)cc4c3CCN2c2nc(-c3cccnc3)cs2)cc1 (stereo not drawn) [Compound 1592] | 40 to 200 nM

Row | Compound | EC50
24 | COc1ccc(C2c3[nH]c4ccc(Cl)cc4c3CCN2C(=N)SC2CCCC2=O)cc1 (stereo not drawn) [Compound 1593] | 40 to 200 nM
25 | COc1ccc(C2c3[nH]c4ccc(Cl)cc4c3CCN2c2nc(-c3ccncc3)cs2)cc1 (stereo not drawn) [Compound 1594] | 40 to 200 nM
26 | COc1ccc(C2c3[nH]c4ccc(Cl)cc4c3CCN2c2nc(-c3ccsc3)cs2)cc1 (stereo not drawn) [Compound 1595] | 8 to 40 nM
27 | COc1ccc(C2c3[nH]c4ccc(Cl)cc4c3CCN2c2nc(CC(C)=O)cs2)cc1 (stereo not drawn) [Compound 1596] | 8 to 40 nM
28 | COc1ccc(C2c3[nH]c4ccc(Cl)cc4c3CCN2c2nc(-c3ccc(Cl)cc3)cs2)cc1 (stereo not drawn) [Compound 1597] | < 8 nM
29 | COc1ccc(C2c3[nH]c4ccc(Cl)cc4c3CCN2c2nc(-c3ccccc3)cs2)cc1 (stereo not drawn) [Compound 1598] | < 8 nM
30 | COc1ccc(C2c3[nH]c4ccc(Cl)cc4c3CCN2c2nc(-c3ccccc3)c(C(=O)c3ccc(Cl)cc3)s2)cc1 (stereo not drawn) [Compound 1600] | < 8 nM
31 | COc1ccc(C(=O)c2sc(N3CCc4c([nH]c5ccc(Cl)cc45)C3c3ccc(OC)cc3)nc2-c2ccccc2)cc1 (stereo not drawn) [Compound 1601] | < 8 nM
32 | CC#CCOC(=O)N1CCc2c([nH]c3ccc(Cl)cc23)[C@@H]1c1ccc(OC2CCOCC2)cc1 [Compound 1603] | < 8 nM
33 | CC#CCOC(=O)N1CCc2c([nH]c3ccc(Cl)cc23)[C@@H]1c1ccc(OC2CCN(S(=O)(=O)CC[Si](C)(C)C)CC2)cc1 [Compound 1606] | < 8 nM
34 | C[Si](C)(C)CCS(=O)(=O)N1CCC(Oc2ccc([C@H]3c4[nH]c5ccc(Cl)cc5c4CCN3C(=O)Oc3ccc(F)cc3)cc2)CC1 [Compound 1607] | < 8 nM
35 | C=CCOc1ccc([C@H]2c3[nH]c4ccc(Cl)cc4c3CCN2P(=O)(OCC)OCC)cc1 [Compound 1608] | > 1000 nM
36 | C=CCOc1ccc([C@H]2c3[nH]c4ccc(Cl)cc4c3CCN2C(=O)OCC2CCCC2)cc1 [Compound 1609] | < 8 nM
37 | CCOC(=O)N1CCc2c([nH]c3ccc(Cl)cc23)[C@@H]1c1ccc(OCCCNCC2CCCO2)cc1 (stereo partly drawn) [Compound 1610] | 40 to 200 nM
38 | CCOC(=O)N1CCc2c([nH]c3ccc(Cl)cc23)[C@@H]1c1ccc(OCCC(O)CNC(=O)CC)cc1 (stereo partly drawn) [Compound 1615] | 8 to 40 nM
39 | CCOC(=O)N1CCc2c([nH]c3ccc(Cl)cc23)[C@@H]1c1ccc(OCCC(O)CNC(=O)C(C)C)cc1 (stereo partly drawn) [Compound 1616] | 8 to 40 nM
40 | CCOC(=O)N1CCc2c([nH]c3ccc(Cl)cc23)[C@@H]1c1ccc(OCCC(O)CNC(=O)c2cccnc2)cc1 (stereo partly drawn) [Compound 1617] | 8 to 40 nM
41 | CCOC(=O)N1CCc2c([nH]c3ccc(Cl)cc23)[C@@H]1c1ccc(OCCC(O)CNC(=O)c2ccccn2)cc1 (stereo partly drawn) [Compound 1618] | < 8 nM
42 | CCOC(=O)N1CCc2c([nH]c3ccc(Cl)cc23)[C@@H]1c1ccc(OCCC(O)CNC(=O)OC)cc1 (stereo partly drawn) [Compound 1619] | < 8 nM
43 | CCCOC(=O)NCC(O)CCOc1ccc([C@H]2c3[nH]c4ccc(Cl)cc4c3CCN2C(=O)OCC)cc1 (stereo partly drawn) [Compound 1620] | < 8 nM
44 | CCOC(=O)N1CCc2c([nH]c3ccc(Cl)cc23)[C@@H]1c1ccc(OCCC(O)CNC(=O)OCCOC)cc1 (stereo partly drawn) [Compound 1621] | < 8 nM
45 | CCOC(=O)N1CCc2c([nH]c3ccc(Cl)cc23)[C@@H]1c1ccc(OCCC(O)CNS(C)(=O)=O)cc1 (stereo partly drawn) [Compound 1622] | < 8 nM
46 | CCOC(=O)N1CCc2c([nH]c3ccc(Cl)cc23)[C@@H]1c1ccc(OCCC(O)CNS(=O)(=O)CC)cc1 (stereo partly drawn) [Compound 1623] | < 8 nM

Row | Compound | EC50
47 | CCOC(=O)N1CCc2c([nH]c3ccc(Cl)cc23)[C@@H]1c1ccc(OCCC(O)CNS(=O)(=O)C2CC2)cc1 (stereo partly drawn) [Compound 1624] | < 8 nM
48 | O=C(OCC1CCCC1)N1CCc2c([nH]c3ccc(Cl)cc23)[C@@H]1c1ccc(OCCCO)cc1 [Compound 1630] | < 8 nM
49 | O=C(OCC1CCCC1)N1CCc2c([nH]c3ccc(Cl)cc23)[C@@H]1c1ccc(O)cc1 [Compound 1631] | 40 to 200 nM
50 | OCCCOc1ccc([C@H]2c3[nH]c4ccc(Cl)cc4c3CCN2c2nc(C(F)(F)F)cs2)cc1 [Compound 1632] | < 8 nM
51 | OC[C@@H](O)COc1ccc([C@H]2c3[nH]c4ccc(Cl)cc4c3CCN2c2nc(C(F)(F)F)cs2)cc1 [Compound 1633] | < 8 nM
52 | OC[C@H](O)COc1ccc([C@H]2c3[nH]c4ccc(Cl)cc4c3CCN2c2nc(C(F)(F)F)cs2)cc1 [Compound 1634] | < 8 nM
53 | CS(=O)(=O)CCCOc1ccc([C@H]2c3[nH]c4ccc(Cl)cc4c3CCN2C(=O)Oc2ccc(Cl)cc2)cc1 [Compound 1648] | < 8 nM
54 | CCOC(=O)NC[C@@H](O)COc1ccc([C@H]2c3[nH]c4ccc(Cl)cc4c3CCN2C(=O)OCC)cc1 [Compound 1650] | < 8 nM
55 | CCOC(=O)NC[C@H](O)COc1ccc([C@H]2c3[nH]c4ccc(Cl)cc4c3CCN2C(=O)OCC)cc1 [Compound 1651] | < 8 nM
56 | C[Si](C)(C)CCS(=O)(=O)N1CCC(Oc2ccc([C@H]3c4[nH]c5ccc(Cl)cc5c4CCN3C(=O)Oc3ccc(Cl)cc3)cc2)CC1 [Compound 1652] | < 8 nM
57 | CCOC(=O)N1CCc2c([nH]c3ccc(Cl)cc23)[C@@H]1c1ccc(Oc2nc(C)cnc2C)cc1 [Compound 1653] | < 8 nM
58 | CCOC(=O)N1CCc2c([nH]c3ccc(Cl)cc23)[C@@H]1c1ccc(Oc2nccnc2C)cc1 [Compound 1654] | < 8 nM
59 | CCOC(=O)N1CCc2c([nH]c3ccc(Cl)cc23)[C@@H]1c1ccc(Oc2cnc(N)cn2)cc1 [Compound 1655] | 40 to 200 nM
60 | CCOC(=O)N1CCc2c([nH]c3ccc(Cl)cc23)[C@@H]1c1ccc(Oc2ncc(CN3CCOCC3)s2)cc1 [Compound 1656] | < 8 nM
61 | CCOC(=O)N1CCc2c([nH]c3ccc(Cl)cc23)[C@@H]1c1ccc(Oc2ncc(CN3CCN(C)CC3)s2)cc1 [Compound 1657] | < 8 nM
62 | O=C(Oc1ccc(Cl)cc1)N1CCc2c([nH]c3ccc(Cl)cc23)[C@@H]1c1ccc(Oc2ncc(CN3CCOCC3)s2)cc1 [Compound 1660] | < 8 nM
63 | CN1CCN(Cc2cnc(Oc3ccc([C@H]4c5[nH]c6ccc(Cl)cc6c5CCN4C(=O)Oc4ccc(Cl)cc4)cc3)s2)CC1 [Compound 1661] | < 8 nM
64 | COc1ccc([C@H]2c3[nH]c4ccc(Cl)cc4c3CCN2C(=O)OCC2CCCC2)cc1 [Compound 1662] | 8 to 40 nM
65 | CCOC(=O)NC[C@H](O)COc1ccc([C@H]2c3[nH]c4ccc(Cl)cc4c3CCN2C(=O)Oc2ccc(F)cc2)cc1 [Compound 1663] | < 8 nM
66 | CCOC(=O)NC[C@@H](O)COc1ccc([C@H]2c3[nH]c4ccc(Cl)cc4c3CCN2C(=O)Oc2ccc(F)cc2)cc1 [Compound 1664] | < 8 nM
67 | CCOC(=O)NCC(O)CCOc1ccc([C@H]2c3[nH]c4ccc(Cl)cc4c3CCN2C(=O)OCC)cc1 (stereo partly drawn) [Compound 1665] | 8 to 40 nM
68 | CC1(C)C(=O)NC(=O)N1CCCOc1ccc(C2c3[nH]c4ccc(Cl)cc4c3CCN2C(=O)Oc2ccc(Cl)cc2)cc1 (stereo not drawn) [Compound 1671] | < 8 nM
69 | O=C1CN(CCCOc2ccc(C3c4[nH]c5ccc(Cl)cc5c4CCN3C(=O)Oc3ccc(Cl)cc3)cc2)C(=O)N1 (stereo not drawn) [Compound 1672] | < 8 nM
